Marks after values point to notes of the source that are not given here.
Experiments:
[1] = Acute toxicity; assay type: in vivo; settings: mouse, in vivo; fraction of animals; dose 300 mg/kg oral in 0.5% carboxymethyl cellulose, observed for 7 days
Experimental: The test animals employed were male mice of the ddy strain (age: 5 weeks). […] The dose of test compound was 300 mg/kg.

[2] = test system: rats of the Wistar strain; assay: Analgesic effect (Randall-Selitto method); assay type: in vivo; settings: fraction of animals; dose 25 mg/kg (*), oral
Experimental: These tests were conducted according to the Randall-Selitto method using rats of the Wistar strain [L.O. Randall, J.J. Selitto: Arch. int. Pharmacodyn. 111, 409 (1957)]. Except where otherwise noted, the dose of test compound was 50 mg/kg.

[3] = test system: carrageenan-induced edema; assay: Anti-inflammatory effect (carrageenan edema method); assay type: in vivo, rats of the Wistar strain; settings: Rattus norvegicus; percent inhibition of carrageenan-induced edema; dose 25 mg/kg (*), oral
Experimental: The percent inhibition against carrageenan-induced edema in rats of the Wistar strain, using the conventional method of C.A. Winter, E.A. Risley, G.W. Nuss [J. Pharmacol., Exp. Therap., 141, 369 (1963)]. Except where otherwise noted, the dose of test compound was 50 mg/kg.

[4] = test system: inflammation induced by anti-rat IgG rabbit serum; assay: Anti-inflammatory effect (reversed passive alusas reaction, Evans blue extraction); assay type: in vivo, rats of the Sprague-Dawley strain; settings: 2.5 h, percent inhibition of inflammation relative to control group, dose 25 mg/kg (*), oral
Experimental: The test animals were rats of the Sprague-Dawley strain, which had first been fasted for 17 hours. The hair was trimmed from their dorsal portions by means of a hair clipper, and 0.1 ml/site of anti-rat IgG rabbit serum was injected intracutaneously at the trimmed part to induce inflammation. Except in the case of the control animals, to which no anti-inflammatory drug was administered, the test drug was administered orally immediately before inflammation was induced. Except where otherwise noted, the dose of test compound was 50 mg/kg. Two hours after induction of inflammation, a 1% by volume solution of Evans blue in physiological saline was injected intravenously into the tail of each rat in an amount of 1 ml per each animal. 30 minutes after this injection, the rats were sacrificed with carbon dioxide and their skins were peeled off to extract the chromogen of the blue spots. In more detail, the skins were cut into small pieces and extracted with 5 ml of an extraction solvent at room temperature for 2 days. The supernatant obtained by centrifugation was then measured spectrophotometrically at an absorption wavelength of 605 nm. The percent inhibition of inflammation of the group of rats to which the test drug was administered was determined relative to the control group.

Cc1ccc(-c2cnn3cc[nH]c23)cc1 [Example 35, 7-(p-methylphenyl)-1H-imidazo[1,2-b]pyrazole]
mortality at 168 h [1]: 30% | Analgesic effect (Randall-Selitto) [2]: 5/5* | inhibition in vivo at 25 mg/kg [3]: 56.4% | inhibition in vivo at 25 mg/kg [4]: 69.9%

Source: patent EP0353047B1, “Use of imidazopyrazole derivatives as analgesics and anti-inflammatory agents” (Sankyo Company Limited, priority 1988, dated 1990)
